What was measured:
[1] = system: HIV-infected MT-4 cells; assay: Inhibition of the HIV-induced cytopathic effect in MT-4 cells (MTT); type: cell-based; conditions: read-out: IC50 (50% inhibitory concentration; dose achieving 50% protection); HIV-infected MT-4 cells, MTT, OD 540 nm
Description: (§1) A rapid, sensitive and automated assay procedure was used for the in vitro evaluation of anti-HIV agents. An […] T4-cell line, MT-4, which was previously shown (Koyanagi et al., Int. J. Cancer, 36, 445-451, 1985) to be highly susceptible to and permissive for HIV infection, served as the target cell line. Inhibition of the HIV-induced cytopathic effect was used as the end point. The viability of both HIV- and mock-infected cells was assessed spectrophotometrically via the in situ reduction of 3-(4,5-dimethylthiazol-2-yl)-2,5-diphenyltetrazolium bromide (MTT). […] The percent protection achieved by the compound in HIV-infected cells was calculated by the following formula:
(§2) [formula] whereby (ODT)HIV is the optical density measured with a given concentration of the test compound in HIV-infected cells; (ODC)HIV is the optical density measured for the control untreated HIV-infected cells; (ODC)MOCK is the optical density measured for the control untreated mock-infected cells; all optical density values were determined at 540 nm. […] The ratio of CC50 to IC50 was defined as the selectivity index (SI).

[2] = system: mock-infected MT-4 cells; assay: Cytotoxicity in mock-infected MT-4 cells (MTT); type: cell-based; conditions: read-out: CC50 (50% cytotoxic concentration), OD 540 nm
Description: as §1, §2

## Cc1cc(C)c(Oc2cc(C(F)(F)F)nc(Nc3ccc(C#N)cc3)n2)c(C)c1 [Compound 25]
[1]
  IC50: 79 nM
[2]
  CC50: > 100000 nM

## Cc1cc(C)c(Oc2nc(Nc3ccc(C#N)cc3)nc(C(N)=O)n2)c(C)c1 [Compound 26]
[1]
  IC50: 1 nM
[2]
  CC50: 2000 nM
